{
  "source": "patent US8404677B2",
  "about": "“Kinase inhibitors” (Genosco, priority 2009, dated 2013)",
  "key": {"ALK": {"target": "T1, ALK (Homo sapiens, UniProt Q9UM73)", "T1 construct": "purchased Ambit Biosciences", "experiment": "In vitro kinase inhibition, Ambit Biosciences panel", "format": "binding", "settings": "lower numbers indicate stronger activities", "method": "(§1) Up to 518 different kinases have been identified in humans. They act on small molecules such as lipids, carbohydrates, amino acids, and nucleotides. To determine the scope of inhibitory effects of a representative compound of Formula (I) on known kinases, Compound 6 was tested against 104 commercially available kinases (Ambit Biosciences™) in vitro. 104 kinases included ABL1(E255K)-phosphorylated, ABL1(T315I)-phosphorylated, ABL1-phosphorylated, ACVR1B, ADCK3, AKT1, AKT2, ALK, AURKA, AURKB, AXL, BMPR2, BRAF, BRAF(V600E), BTK, CDK11, CDK2, CDK3, CDK7, CDK9, CHEK1, CSF1R, CSNK1D, CSNK1G2, DCAMKL1, DYRK1B, EGFR, EGFR(L858R), EPHA2, ERBB2, ERBB4, ERK1, FAK, FGFR2, FGFR3, FLT1, FLT3, FLT4, GSK3B, IGF1R, IKK-α, IKK-β, INSR, JAK2(JH1domain-catalytic), JAK3(JH1domain-catalytic), JNK1, JNK2, JNK3, KIT, KIT(D816V), KIT(V559D,T670I), LKB1, LRRK2, LRRK2(G2019S), MAP3K4, MAPKAPK2, MARK3, MEK1, MEK2, MET, MKNK1, MKNK2, MLK1, MTOR, p38-alpha, p38-beta, PAK1, PAK2, PAK4, PCTK1, PDGFRA, PDGFRB, PDPK1, PIK3C2B, PIK3CA, PIK3CG, PIM1, PIM2, PIM3, PKAC-alpha, PLK1, PLK3, PLK4, PRKCE, PYK2, RAFT, RET, RIOK2, ROCK2, RSK2, SNARK, SRC, SRPK3, SYK, TAK1, TGFBR1, TIE2, TRKA, TSSK1B, TYK2(JH1domain-catalytic), ULK2, VEGFR2, YANK3 and ZAP70.\n(§2) Inhibition activity of Compound 6 was reported as percent control where lower numbers indicate stronger activities. […] Conventionally, the percent control of less than 35 is deemed to be significant inhibition of kinase activity as the numeric value 35 is frequently used as a threshold."}, "AURKA": {"target": "T2, AURKA (Homo sapiens, UniProt O14965)", "T2 construct": "purchased Ambit Biosciences", "experiment": "In vitro kinase inhibition, Ambit Biosciences panel", "format": "binding", "settings": "lower numbers indicate stronger activities", "method": "as §1, §2"}, "AXL": {"target": "T3, AXL (Homo sapiens, UniProt P30530)", "T3 construct": "purchased Ambit Biosciences", "experiment": "In vitro kinase inhibition, Ambit Biosciences panel", "format": "binding", "settings": "lower numbers indicate stronger activities", "method": "as §1, §2"}, "CSF1R": {"target": "T4, CSF1R (Homo sapiens, UniProt P07333)", "T4 construct": "purchased Ambit Biosciences", "experiment": "In vitro kinase inhibition, Ambit Biosciences panel", "format": "binding", "settings": "lower numbers indicate stronger activities", "method": "as §1, §2"}, "JAK2": {"target": "T5, JAK2 (Homo sapiens, UniProt O60674)", "T5 construct": "JAK2(JH1domain-catalytic), JAK3(JH1domain-catalytic); purchased Ambit Biosciences", "T5 sequence (O60674 849-1124 limits assumed)": "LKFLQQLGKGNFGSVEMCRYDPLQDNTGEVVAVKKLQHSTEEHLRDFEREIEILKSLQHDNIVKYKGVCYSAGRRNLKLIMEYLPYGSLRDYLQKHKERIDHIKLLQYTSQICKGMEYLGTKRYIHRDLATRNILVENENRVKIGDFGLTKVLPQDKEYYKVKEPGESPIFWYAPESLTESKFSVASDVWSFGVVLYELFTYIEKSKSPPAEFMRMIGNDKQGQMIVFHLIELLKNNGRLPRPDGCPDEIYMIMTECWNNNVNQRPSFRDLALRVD", "experiment": "In vitro kinase inhibition, Ambit Biosciences panel", "format": "binding", "settings": "lower numbers indicate stronger activities", "method": "as §1, §2"}, "JAK3": {"target": "T6, JAK3 (Homo sapiens, UniProt P52333)", "T6 construct": "JAK2(JH1domain-catalytic), JAK3(JH1domain-catalytic); purchased Ambit Biosciences", "experiment": "In vitro kinase inhibition, Ambit Biosciences panel", "format": "binding", "settings": "lower numbers indicate stronger activities", "method": "as §1, §2"}, "JNK1": {"target": "T7, JNK1 (Homo sapiens, UniProt P45983)", "T7 construct": "purchased Ambit Biosciences", "experiment": "In vitro kinase inhibition, Ambit Biosciences panel", "format": "binding", "settings": "lower numbers indicate stronger activities", "method": "as §1, §2"}, "JNK2": {"target": "T8, JNK2 (Homo sapiens, UniProt P45984)", "T8 construct": "purchased Ambit Biosciences", "experiment": "In vitro kinase inhibition, Ambit Biosciences panel", "format": "binding", "settings": "lower numbers indicate stronger activities", "method": "as §1, §2"}, "JNK3": {"target": "T9, JNK3 (Homo sapiens, UniProt P53779)", "T9 construct": "purchased Ambit Biosciences", "experiment": "In vitro kinase inhibition, Ambit Biosciences panel", "format": "binding", "settings": "lower numbers indicate stronger activities", "method": "as §1, §2"}, "KIT": {"target": "T10, KIT (Homo sapiens, UniProt P10721)", "T10 construct": "purchased Ambit Biosciences", "experiment": "In vitro kinase inhibition, Ambit Biosciences panel", "format": "binding", "settings": "lower numbers indicate stronger activities", "method": "as §1, §2"}, "KIT(D816V)": {"target": "T11, KIT(D816V) (Homo sapiens, UniProt P10721, D816V)", "T11 construct": "purchased Ambit Biosciences", "experiment": "In vitro kinase inhibition, Ambit Biosciences panel", "format": "binding", "settings": "lower numbers indicate stronger activities", "method": "as §1, §2"}, "LKB1": {"target": "T12, LKB1 (Homo sapiens, UniProt Q15831)", "T12 construct": "purchased Ambit Biosciences", "experiment": "In vitro kinase inhibition, Ambit Biosciences panel", "format": "binding", "settings": "lower numbers indicate stronger activities", "method": "as §1, §2"}, "LRRK2": {"target": "T13, LRRK2 (Homo sapiens, UniProt Q5S007)", "T13 construct": "purchased Ambit Biosciences", "experiment": "In vitro kinase inhibition, Ambit Biosciences panel", "format": "binding", "settings": "lower numbers indicate stronger activities", "method": "as §1, §2"}, "LRRK2(G2019S)": {"target": "T14, LRRK2(G2019S) (Homo sapiens, UniProt Q5S007, G2019S)", "T14 construct": "purchased Ambit Biosciences", "T14 sequence (Q5S007 whole entry G2019S)": "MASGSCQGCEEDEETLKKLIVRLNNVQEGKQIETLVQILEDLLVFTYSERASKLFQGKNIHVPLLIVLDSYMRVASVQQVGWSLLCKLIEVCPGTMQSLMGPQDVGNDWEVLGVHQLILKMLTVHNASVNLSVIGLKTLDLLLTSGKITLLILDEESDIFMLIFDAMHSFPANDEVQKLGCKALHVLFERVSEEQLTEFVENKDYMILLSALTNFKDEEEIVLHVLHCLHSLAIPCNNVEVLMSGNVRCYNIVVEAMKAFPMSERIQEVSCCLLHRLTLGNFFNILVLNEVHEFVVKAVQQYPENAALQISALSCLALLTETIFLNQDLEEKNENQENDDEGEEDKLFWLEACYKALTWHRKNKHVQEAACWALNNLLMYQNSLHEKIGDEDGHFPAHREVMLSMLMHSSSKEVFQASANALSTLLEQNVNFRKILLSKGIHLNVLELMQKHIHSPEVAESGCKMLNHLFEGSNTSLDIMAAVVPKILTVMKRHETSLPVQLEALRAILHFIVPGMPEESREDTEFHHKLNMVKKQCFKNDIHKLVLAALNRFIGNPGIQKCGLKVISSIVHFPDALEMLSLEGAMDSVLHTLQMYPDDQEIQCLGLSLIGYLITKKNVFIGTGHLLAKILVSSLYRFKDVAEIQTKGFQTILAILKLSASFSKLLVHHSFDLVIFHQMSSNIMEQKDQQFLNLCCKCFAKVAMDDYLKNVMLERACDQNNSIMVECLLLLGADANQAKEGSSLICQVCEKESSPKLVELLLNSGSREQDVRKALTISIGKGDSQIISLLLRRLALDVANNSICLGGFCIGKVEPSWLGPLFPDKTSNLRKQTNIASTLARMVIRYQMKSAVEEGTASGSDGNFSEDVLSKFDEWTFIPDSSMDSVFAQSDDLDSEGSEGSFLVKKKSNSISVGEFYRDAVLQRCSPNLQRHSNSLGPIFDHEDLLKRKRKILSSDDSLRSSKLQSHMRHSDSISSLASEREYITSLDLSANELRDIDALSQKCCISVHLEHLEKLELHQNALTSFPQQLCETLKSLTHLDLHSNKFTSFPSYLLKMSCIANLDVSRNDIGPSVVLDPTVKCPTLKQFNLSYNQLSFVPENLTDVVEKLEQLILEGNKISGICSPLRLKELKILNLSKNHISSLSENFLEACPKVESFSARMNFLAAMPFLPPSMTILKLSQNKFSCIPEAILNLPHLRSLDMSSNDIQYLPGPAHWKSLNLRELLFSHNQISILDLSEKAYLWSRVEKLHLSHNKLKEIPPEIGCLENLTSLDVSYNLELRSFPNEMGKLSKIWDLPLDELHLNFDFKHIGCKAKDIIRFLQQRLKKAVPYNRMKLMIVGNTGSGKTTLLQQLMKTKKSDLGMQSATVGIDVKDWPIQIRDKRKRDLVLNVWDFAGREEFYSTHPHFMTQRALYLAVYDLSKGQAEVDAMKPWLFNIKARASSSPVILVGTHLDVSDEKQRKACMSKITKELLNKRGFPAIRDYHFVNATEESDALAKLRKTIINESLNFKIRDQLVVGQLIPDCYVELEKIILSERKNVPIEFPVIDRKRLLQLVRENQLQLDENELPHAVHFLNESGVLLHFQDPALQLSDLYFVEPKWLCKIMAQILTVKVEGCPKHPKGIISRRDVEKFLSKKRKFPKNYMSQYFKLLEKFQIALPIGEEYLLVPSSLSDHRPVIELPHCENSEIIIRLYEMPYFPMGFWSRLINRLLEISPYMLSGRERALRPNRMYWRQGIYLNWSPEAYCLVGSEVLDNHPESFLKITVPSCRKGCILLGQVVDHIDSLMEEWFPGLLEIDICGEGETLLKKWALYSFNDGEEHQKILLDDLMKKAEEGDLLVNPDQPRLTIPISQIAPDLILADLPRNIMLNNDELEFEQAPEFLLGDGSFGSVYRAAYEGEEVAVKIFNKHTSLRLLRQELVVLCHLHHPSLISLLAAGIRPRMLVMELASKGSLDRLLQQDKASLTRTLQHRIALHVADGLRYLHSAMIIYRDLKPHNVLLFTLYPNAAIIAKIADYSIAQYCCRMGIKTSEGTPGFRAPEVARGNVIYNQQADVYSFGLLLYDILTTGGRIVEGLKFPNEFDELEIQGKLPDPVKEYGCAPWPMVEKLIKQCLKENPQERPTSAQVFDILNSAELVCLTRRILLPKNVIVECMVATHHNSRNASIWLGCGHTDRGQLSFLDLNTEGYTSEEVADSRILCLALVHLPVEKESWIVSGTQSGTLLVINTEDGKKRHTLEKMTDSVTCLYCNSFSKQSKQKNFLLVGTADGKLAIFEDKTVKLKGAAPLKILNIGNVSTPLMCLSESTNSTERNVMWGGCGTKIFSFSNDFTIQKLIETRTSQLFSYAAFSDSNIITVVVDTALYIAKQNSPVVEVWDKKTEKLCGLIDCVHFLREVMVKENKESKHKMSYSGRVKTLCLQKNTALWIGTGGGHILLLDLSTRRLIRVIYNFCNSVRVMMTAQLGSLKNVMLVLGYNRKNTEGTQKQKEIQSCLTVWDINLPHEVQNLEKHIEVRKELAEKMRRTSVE", "experiment": "In vitro kinase inhibition, Ambit Biosciences panel", "format": "binding", "settings": "lower numbers indicate stronger activities", "method": "as §1, §2"}, "MLK1": {"target": "T15, MLK1 (Homo sapiens, UniProt P80192)", "T15 construct": "purchased Ambit Biosciences", "experiment": "In vitro kinase inhibition, Ambit Biosciences panel", "format": "binding", "settings": "lower numbers indicate stronger activities", "method": "as §1, §2"}, "PAK4": {"target": "T16, PAK4 (Homo sapiens, UniProt O96013)", "T16 construct": "purchased Ambit Biosciences", "experiment": "In vitro kinase inhibition, Ambit Biosciences panel", "format": "binding", "settings": "lower numbers indicate stronger activities", "method": "as §1, §2"}, "PLK4": {"target": "T17, PLK4 (Homo sapiens, UniProt O00444)", "T17 construct": "purchased Ambit Biosciences", "T17 sequence (O00444 whole entry)": "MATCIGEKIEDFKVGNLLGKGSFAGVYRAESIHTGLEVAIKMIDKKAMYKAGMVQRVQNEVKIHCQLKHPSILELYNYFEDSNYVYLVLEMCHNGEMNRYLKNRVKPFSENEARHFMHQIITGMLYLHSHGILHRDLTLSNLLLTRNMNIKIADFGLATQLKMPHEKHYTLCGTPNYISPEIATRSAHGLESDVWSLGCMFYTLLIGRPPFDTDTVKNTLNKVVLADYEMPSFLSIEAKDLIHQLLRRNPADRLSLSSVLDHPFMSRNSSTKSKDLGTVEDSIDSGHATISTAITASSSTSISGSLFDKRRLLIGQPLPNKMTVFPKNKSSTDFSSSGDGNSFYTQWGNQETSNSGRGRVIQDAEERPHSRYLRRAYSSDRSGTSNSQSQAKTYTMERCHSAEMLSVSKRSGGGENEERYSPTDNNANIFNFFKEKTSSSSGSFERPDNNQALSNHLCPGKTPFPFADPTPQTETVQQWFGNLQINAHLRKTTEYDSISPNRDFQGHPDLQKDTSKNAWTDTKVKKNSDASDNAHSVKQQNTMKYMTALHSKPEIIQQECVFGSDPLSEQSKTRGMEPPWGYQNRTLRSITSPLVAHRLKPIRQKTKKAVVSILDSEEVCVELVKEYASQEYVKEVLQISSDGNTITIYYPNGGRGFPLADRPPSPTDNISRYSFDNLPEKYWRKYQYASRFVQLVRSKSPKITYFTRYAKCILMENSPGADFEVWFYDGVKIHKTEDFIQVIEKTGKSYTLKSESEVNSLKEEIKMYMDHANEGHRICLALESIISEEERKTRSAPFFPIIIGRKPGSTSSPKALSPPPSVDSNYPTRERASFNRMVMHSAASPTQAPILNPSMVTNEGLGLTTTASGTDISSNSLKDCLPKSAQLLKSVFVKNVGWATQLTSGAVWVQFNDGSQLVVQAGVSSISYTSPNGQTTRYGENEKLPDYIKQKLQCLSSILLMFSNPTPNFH", "experiment": "In vitro kinase inhibition, Ambit Biosciences panel", "format": "binding", "settings": "lower numbers indicate stronger activities", "method": "as §1, §2"}, "RET": {"target": "T18, RET (Homo sapiens, UniProt P07949)", "T18 construct": "purchased Ambit Biosciences", "T18 sequence (P07949 29-1114)": "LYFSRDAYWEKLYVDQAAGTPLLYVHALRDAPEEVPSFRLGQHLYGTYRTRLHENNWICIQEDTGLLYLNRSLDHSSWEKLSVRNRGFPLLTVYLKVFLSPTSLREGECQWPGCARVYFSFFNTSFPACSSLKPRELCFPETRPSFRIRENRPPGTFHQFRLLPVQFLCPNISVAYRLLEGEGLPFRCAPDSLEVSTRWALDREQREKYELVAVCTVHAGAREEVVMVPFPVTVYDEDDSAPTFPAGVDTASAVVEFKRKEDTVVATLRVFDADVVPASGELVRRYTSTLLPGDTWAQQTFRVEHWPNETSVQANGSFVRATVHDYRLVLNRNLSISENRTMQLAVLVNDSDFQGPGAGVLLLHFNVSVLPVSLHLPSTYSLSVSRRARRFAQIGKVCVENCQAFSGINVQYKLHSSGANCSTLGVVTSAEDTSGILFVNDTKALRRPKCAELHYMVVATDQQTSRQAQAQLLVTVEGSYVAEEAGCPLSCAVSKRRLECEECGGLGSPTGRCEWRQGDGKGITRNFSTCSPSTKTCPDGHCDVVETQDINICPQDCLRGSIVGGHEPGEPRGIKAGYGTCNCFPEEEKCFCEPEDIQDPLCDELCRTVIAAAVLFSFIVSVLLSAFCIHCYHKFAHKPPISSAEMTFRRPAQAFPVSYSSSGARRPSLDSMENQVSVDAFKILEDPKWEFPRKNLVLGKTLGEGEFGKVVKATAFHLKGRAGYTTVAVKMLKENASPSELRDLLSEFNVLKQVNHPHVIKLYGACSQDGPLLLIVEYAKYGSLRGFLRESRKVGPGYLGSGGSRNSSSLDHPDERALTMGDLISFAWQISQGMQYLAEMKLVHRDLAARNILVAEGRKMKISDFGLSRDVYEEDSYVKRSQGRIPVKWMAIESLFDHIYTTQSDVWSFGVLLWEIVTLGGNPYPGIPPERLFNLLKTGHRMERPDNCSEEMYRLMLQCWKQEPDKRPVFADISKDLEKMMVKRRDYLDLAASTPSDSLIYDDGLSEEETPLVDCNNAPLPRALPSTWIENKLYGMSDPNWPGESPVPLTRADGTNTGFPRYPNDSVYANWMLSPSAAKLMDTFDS", "experiment": "In vitro kinase inhibition, Ambit Biosciences panel", "format": "binding", "settings": "lower numbers indicate stronger activities", "method": "as §1, §2"}, "RSK2": {"target": "T19, RSK2 (Homo sapiens, UniProt P51812)", "T19 construct": "RSK2 (Kin.Dom.1-N-terminal); purchased Ambit Biosciences", "T19 sequence (P51812 68-327 limits assumed)": "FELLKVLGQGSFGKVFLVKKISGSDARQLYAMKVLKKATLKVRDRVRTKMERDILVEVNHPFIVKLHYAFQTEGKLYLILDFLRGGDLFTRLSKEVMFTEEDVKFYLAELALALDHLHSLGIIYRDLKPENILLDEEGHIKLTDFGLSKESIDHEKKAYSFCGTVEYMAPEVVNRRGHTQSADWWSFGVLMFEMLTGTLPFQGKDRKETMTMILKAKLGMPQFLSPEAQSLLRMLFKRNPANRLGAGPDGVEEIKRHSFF", "experiment": "In vitro kinase inhibition, Ambit Biosciences panel", "format": "binding", "settings": "lower numbers indicate stronger activities", "method": "as §1, §2"}, "SNARK": {"target": "T20, SNARK (Homo sapiens, UniProt Q9H093)", "T20 construct": "purchased Ambit Biosciences", "experiment": "In vitro kinase inhibition, Ambit Biosciences panel", "format": "binding", "settings": "lower numbers indicate stronger activities", "method": "as §1, §2"}, "SRPK3": {"target": "T21, SRPK3 (Homo sapiens, UniProt Q9UPE1)", "T21 construct": "purchased Ambit Biosciences", "experiment": "In vitro kinase inhibition, Ambit Biosciences panel", "format": "binding", "settings": "lower numbers indicate stronger activities", "method": "as §1, §2"}, "TAK1": {"target": "T22, TAK1 (Homo sapiens, UniProt O43318)", "T22 construct": "purchased Ambit Biosciences", "experiment": "In vitro kinase inhibition, Ambit Biosciences panel", "format": "binding", "settings": "lower numbers indicate stronger activities", "method": "as §1, §2"}, "TYK2": {"target": "T23, TYK2 (Homo sapiens, UniProt P29597)", "T23 construct": "TYK2(JH1domain-catalytic); purchased Ambit Biosciences", "experiment": "In vitro kinase inhibition, Ambit Biosciences panel", "format": "binding", "settings": "lower numbers indicate stronger activities", "method": "as §1, §2"}, "RPMI-8226": {"test_system": "RPMI-8226", "experiment": "cells", "format": "cell-based", "settings": "RPMI-8226 (Leukemia)"}, "EKVX": {"test_system": "EKVX", "experiment": "cells", "format": "cell-based", "settings": "EKVX (NSCLC)"}, "MALME-3M": {"test_system": "MALME-3M", "experiment": "cells", "format": "cell-based", "settings": "MALME-3M (Melanoma)"}, "[1]": {"settings": "Homo sapiens, read-out: LC50 (the source's name)"}},
  "data": [
    {"smiles": "O=c1[nH]ccc2nc(N3CCC(O)CC3)nc(Nc3cccc(C(F)(F)F)c3)c12", "note": "[Compound 6, 2-(4-hydroxypiperidin-1-yl)-4-(3-(trifluoromethyl)phenylamino)pyrido[4,3-d]pyrimidine-5(6H)-one]", "values": [
      {"measurement": "Percent of control (lower = stronger binding)", "setting": "ALK", "value": 29, "unit": "%"},
      {"measurement": "% inhibition (reported as percent control)", "setting": "AURKA", "value": 31, "unit": "%"},
      {"measurement": "% inhibition (reported as percent control)", "setting": "AXL", "value": 11, "unit": "%"},
      {"measurement": "% inhibition (reported as percent control)", "setting": "CSF1R", "value": 5.2, "unit": "%"},
      {"measurement": "% inhibition (reported as percent control)", "setting": "JAK2", "value": 3, "unit": "%"},
      {"measurement": "% inhibition (reported as percent control)", "setting": "JAK3", "value": 4.4, "unit": "%"},
      {"measurement": "% inhibition (reported as percent control)", "setting": "JNK1", "value": 4.8, "unit": "%"},
      {"measurement": "% inhibition (reported as percent control)", "setting": "JNK2", "value": 25, "unit": "%"},
      {"measurement": "% inhibition (reported as percent control)", "setting": "JNK3", "value": 7, "unit": "%"},
      {"measurement": "% inhibition (reported as percent control)", "setting": "KIT", "value": 11, "unit": "%"},
      {"measurement": "% inhibition (reported as percent control)", "setting": "KIT(D816V)", "value": 9.3, "unit": "%"},
      {"measurement": "% inhibition (reported as percent control)", "setting": "LKB1", "value": 18, "unit": "%"},
      {"measurement": "% inhibition (reported as percent control)", "setting": "LRRK2", "value": 2.2, "unit": "%"},
      {"measurement": "% inhibition (reported as percent control)", "setting": "LRRK2(G2019S)", "value": 2.2, "unit": "%"},
      {"measurement": "% inhibition (reported as percent control)", "setting": "MLK1", "value": 2.8, "unit": "%"},
      {"measurement": "% inhibition (reported as percent control)", "setting": "PAK4", "value": 21, "unit": "%"},
      {"measurement": "% inhibition (reported as percent control)", "setting": "PLK4", "value": 13, "unit": "%"},
      {"measurement": "% inhibition (reported as percent control)", "setting": "RET", "value": 16, "unit": "%"},
      {"measurement": "% inhibition (reported as percent control)", "setting": "RSK2", "value": 18, "unit": "%"},
      {"measurement": "% inhibition (reported as percent control)", "setting": "SNARK", "value": 3.6, "unit": "%"},
      {"measurement": "% inhibition (reported as percent control)", "setting": "SRPK3", "value": 2.6, "unit": "%"},
      {"measurement": "% inhibition (reported as percent control)", "setting": "TAK1", "value": 1, "unit": "%"},
      {"measurement": "% inhibition (reported as percent control)", "setting": "TYK2", "value": 16, "unit": "%"},
      {"measurement": "GI50", "setting": "RPMI-8226; Homo sapiens", "value": 2.95, "unit": "µM"},
      {"measurement": "IC50", "setting": "RPMI-8226; Homo sapiens", "value": 5.5, "unit": "µM"},
      {"measurement": "CC50", "setting": "RPMI-8226; [1]", "value": 100, "unit": "µM"},
      {"measurement": "TGI", "setting": "RPMI-8226", "value": 91.2, "unit": "µM"},
      {"measurement": "TGI", "setting": "EKVX", "value": 12, "unit": "µM"},
      {"measurement": "GI50", "setting": "EKVX; Homo sapiens", "value": 2.88, "unit": "µM"},
      {"measurement": "IC50", "setting": "EKVX; Homo sapiens", "value": 7.59, "unit": "µM"},
      {"measurement": "CC50", "setting": "EKVX; [1]", "value": 100, "unit": "µM"},
      {"measurement": "GI50", "setting": "MALME-3M; Homo sapiens", "value": 2.63, "unit": "µM"},
      {"measurement": "IC50", "setting": "MALME-3M; Homo sapiens", "value": 9.77, "unit": "µM"},
      {"measurement": "CC50", "setting": "MALME-3M; [1]", "value": 32.4, "unit": "µM"},
      {"measurement": "TGI", "setting": "MALME-3M", "value": 7.94, "unit": "µM"}
    ]}
  ]
}
